Target: T1, h-GABAA α2β2γ1 (Homo sapiens, UniProt P47869+Q8N1C3)
T1 sequence (P47869 29-451): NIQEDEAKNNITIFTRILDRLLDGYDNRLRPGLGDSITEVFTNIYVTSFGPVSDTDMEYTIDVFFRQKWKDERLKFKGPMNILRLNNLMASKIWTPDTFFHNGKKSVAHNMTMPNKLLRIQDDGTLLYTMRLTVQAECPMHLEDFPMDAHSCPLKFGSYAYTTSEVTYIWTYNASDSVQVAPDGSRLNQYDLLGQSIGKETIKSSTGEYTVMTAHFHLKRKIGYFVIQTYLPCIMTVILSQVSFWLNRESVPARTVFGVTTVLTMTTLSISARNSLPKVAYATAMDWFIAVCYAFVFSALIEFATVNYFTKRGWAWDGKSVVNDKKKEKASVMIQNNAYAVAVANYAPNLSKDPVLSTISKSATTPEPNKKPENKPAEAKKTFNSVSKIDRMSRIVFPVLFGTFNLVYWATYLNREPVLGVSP
T1 sequence (P47870 25-512 partner limits assumed): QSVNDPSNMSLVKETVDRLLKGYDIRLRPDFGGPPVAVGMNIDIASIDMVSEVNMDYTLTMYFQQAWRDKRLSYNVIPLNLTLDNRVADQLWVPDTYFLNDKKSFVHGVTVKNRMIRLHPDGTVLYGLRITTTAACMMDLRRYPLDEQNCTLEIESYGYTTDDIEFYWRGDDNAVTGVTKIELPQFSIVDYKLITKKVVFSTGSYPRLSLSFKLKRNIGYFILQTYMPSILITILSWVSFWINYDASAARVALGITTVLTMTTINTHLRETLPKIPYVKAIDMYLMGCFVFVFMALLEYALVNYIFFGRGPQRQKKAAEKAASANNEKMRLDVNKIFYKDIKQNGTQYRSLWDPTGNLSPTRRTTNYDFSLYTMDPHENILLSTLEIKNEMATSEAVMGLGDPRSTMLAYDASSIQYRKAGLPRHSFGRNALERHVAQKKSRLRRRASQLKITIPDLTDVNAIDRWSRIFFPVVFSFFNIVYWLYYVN
T1 sequence (Q8N1C3 36-465): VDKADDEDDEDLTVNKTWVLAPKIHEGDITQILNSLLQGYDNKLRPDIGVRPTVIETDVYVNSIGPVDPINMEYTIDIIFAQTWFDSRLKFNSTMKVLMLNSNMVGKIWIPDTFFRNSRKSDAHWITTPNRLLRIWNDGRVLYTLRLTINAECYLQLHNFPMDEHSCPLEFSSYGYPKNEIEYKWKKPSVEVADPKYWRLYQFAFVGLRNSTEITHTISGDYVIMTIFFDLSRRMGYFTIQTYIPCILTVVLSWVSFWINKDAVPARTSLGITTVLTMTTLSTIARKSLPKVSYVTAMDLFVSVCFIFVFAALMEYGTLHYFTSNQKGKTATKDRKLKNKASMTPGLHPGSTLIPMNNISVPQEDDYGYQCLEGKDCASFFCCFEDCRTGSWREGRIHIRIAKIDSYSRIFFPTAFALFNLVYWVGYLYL
Experiment: Two-electrode voltage clamp electrophysiology in Xenopus oocytes, modulation of GABA EC20 current
Type: cell-based
Set-up: host or cells: Xenopus laevis oocytes, RNA micro-injection
Conditions: Table 2; for Efficacy (GABA)%: % modulation of GABA EC20 = 100*(Fold increase−1), compound at approx. 30-fold Ki; for Fold increase h-GABA-A α2β2γ1 oocyte @ 30-fold Ki: compound at approx. 30-fold its Ki α2β2γ1, GABA EC20, Xenopus oocytes
Method: Xenopus laevis oocytes at maturation stages V-VJ were used for the expression of cloned mRNA encoding GABAA receptor subunits. Oocytes ready for RNA micro-injection were bought from Ecocyte, Castrop-Rauxel, Germany and stored in modified Barth's medium (composition in mM: NaCl 88, KCl 1, NaHCO3 2.4, HEPES 10, MgSO4 0.82, CaNO3 0.33, CaCl2 0.33, pH=7.5) at 20° C. until the experiment.
Oocytes were plated in 96-well plates for microinjection using the Roboinject automated instrument (MultiChannelSystems, Reutlingen, Germany). Approximately 50 nL of an aqueous solution containing the RNA transcripts for the subunits of the desired GABAA receptor subtype was injected into each oocyte. […] Oocytes were kept in modified Barth's medium (composition in mM: NaCl 88, KCl 1, NaHCO3 […], HEPES 10, MgSO4 0.82, CaNO3 0.33, CaCl2 0.33, pH=7.5) at 20° C. until the experiment.
Electrophysiological experiments were performed using the Roboocyte instrument (MultiChannelSystems, Reutlingen, Germany) on days 3 to 5 after the micro-injection of mRNA. During the experiment the oocytes were constantly superfused by a solution containing (in mM) NaCl 90, KCl 1, HEPES 5, MgCl2 1, CaCl2 1 (pH 7.4). Oocytes were impaled by two glass microelectrodes (resistance: 0.5-0.8 MΩ) which were filled with a solution containing KCl 1M+K-acetate 1.5 M and voltage-clamped to −80 mV. The recordings were performed at room temperature using the Roboocyte two-electrode voltage clamp system (Multichannelsystem). After an initial equilibration period of 1.5 min GABA was added for 1.5 min at a concentration evoking approximately 20% of a maximal current response (EC20). After another rest interval of 2.5 min GABA was again added evoking a response of similar amplitude and shape. […] Current traces were recorded at a digitization rate of 10 Hz during and shortly before and after the GABA application.
Each compound and concentration was tested on at least 3 oocytes. Different oocytes were used for different compound concentrations.
For the analysis, the digitized current traces of the first and second GABA response were superimposed and, if necessary, rescaled to equal maximal amplitudes. The ratio between the two responses during the time interval of test compound application was calculated point by point. The extremum of the resulting “ratio trace” was taken as the efficacy (“Fold increase”) of the compound expressed as “% modulation of GABA EC20” (100*(Fold increase−1)).

Row | Structure (SMILES) | Efficacy (GABA)% | Fold increase h-GABA-A α2β2γ1 oocyte @ 30-fold Ki
1 | CC(F)(F)c1ccc2c(c1Cl)C(c1c(F)cccc1F)=NCc1nncn1-2 [Example 21, 7-chloro-8-(1,1-difluoroethyl)-6-(2,6-difluorophenyl)-4H-[1,2,4]triazolo[4,3-a][1,4]benzodiazepine] | 100% | 2.00
2 | Cc1nnc2n1-c1ccc(C(C)(F)F)c(Cl)c1C(c1c(F)cccc1F)=NC2 [Example 22, 7-chloro-8-(1,1-difluoroethyl)-6-(2,6-difluorophenyl)-1-methyl-4H-[1,2,4]triazolo[4,3-a][1,4]benzodiazepine] | 86% | 1.86
3 | Fc1cccc(F)c1C1=NCc2nncn2-c2ccc(C(F)F)c(Cl)c21 [Example 23, 7-chloro-8-(difluoromethyl)-6-(2,6-difluorophenyl)-4H-[1,2,4]triazolo[4,3-a][1,4]benzodiazepine] | 61% | 1.61
4 | Cc1nnc2n1-c1ccc(Br)c(Cl)c1C(c1ncccc1F)=NC2 [Example 24, 8-bromo-7-chloro-6-(3-fluoro-2-pyridyl)-1-methyl-4H-[1,2,4]triazolo[4,3-a][1,4]benzodiazepine] | 85% | 1.85
5 | Cc1nnc2n1-c1ccc(C(F)F)c(Cl)c1C(c1c(F)cccc1F)=NC2 [Example 25, 7-chloro-8-(difluoromethyl)-6-(2,6-difluorophenyl)-1-methyl-4H-[1,2,4]triazolo[4,3-a][1,4]benzodiazepine] | 84% | 1.84
6 | O=c1[nH]nc2n1-c1ccc(Br)c(Cl)c1C(c1ccccc1F)=NC2 [Example 26, 8-bromo-7-chloro-6-(2-fluorophenyl)-2,4-dihydro-[1,2,4]triazolo[4,3-a][1,4]benzodiazepin-1-one] | 45% | 1.45
7 | Fc1ccccc1C1=NCc2nnc(-c3cccnn3)n2-c2ccc(C(F)(F)F)c(Cl)c21 [Example 27, 7-chloro-6-(2-fluorophenyl)-1-pyridazin-3-yl-8-(trifluoromethyl)-4H-[1,2,4]triazolo[4,3-a][1,4]benzodiazepine] | 71% | 1.71
8 | Cn1cc(-c2nnc3n2-c2ccc(Cl)c(Cl)c2C(c2c(F)cccc2F)=NC3)cn1 [Example 28, 7,8-dichloro-6-(2,6-difluorophenyl)-1-(1-methylpyrazol-4-yl)-4H-[1,2,4]triazolo[4,3-a][1,4]benzodiazepine] | 59% | 1.59
9 | Fc1cccnc1C1=NCc2nncn2-c2ccc(Br)c(Cl)c21 [Example 29, 8-bromo-7-chloro-6-(3-fluoro-2-pyridyl)-4H-[1,2,4]triazolo[4,3-a][1,4]benzodiazepine] | 105% | 2.05
10 | OCc1nnc2n1-c1ccc(Br)c(Cl)c1C(c1c(F)cccc1F)=NC2 [Example 33, [8-bromo-7-chloro-6-(2,6-difluorophenyl)-4H-[1,2,4]triazolo[4,3-a][1,4]benzodiazepin-1-yl]methanol] | 80% | 1.80
11 | Fc1cccc(F)c1C1=NCc2nncn2-c2ccc(I)c(Cl)c21 [Example 34, 7-chloro-6-(2,6-difluorophenyl)-8-iodo-4H-[1,2,4]triazolo[4,3-a][1,4]benzodiazepine] | 81% | 1.81
12 | Cl.NCc1nnc2n1-c1ccc(Br)c(Cl)c1C(c1c(F)cccc1F)=NC2 [Example 36, [8-bromo-7-chloro-6-(2,6-difluorophenyl)-4H-[1,2,4]triazolo[4,3-a][1,4]benzodiazepin-1-yl]methanamine hydrochloride] | 33% | 1.33
13 | Fc1cccc(F)c1C1=NCc2nncn2-c2ccc(C(F)(F)F)c(Cl)c21 [Example 37, 7-chloro-6-(2,6-difluorophenyl)-8-(trifluoromethyl)-4H-[1,2,4]triazolo[4,3-a][1,4]benzodiazepine] | 67% | 1.67
14 | Fc1cccc(F)c1C1=NCc2nnc(-c3cccnn3)n2-c2ccc(C(F)(F)F)c(Cl)c21 [Example 38, 7-chloro-6-(2,6-difluorophenyl)-1-pyridazin-3-yl-8-(trifluoromethyl)-4H-[1,2,4]triazolo[4,3-a][1,4]benzodiazepine] | 114% | 2.14
15 | Fc1cccc(F)c1C1=NCc2nnc(-c3cccnn3)n2-c2ccc(I)c(Cl)c21 [Example 39, 7-chloro-6-(2,6-difluorophenyl)-8-iodo-1-pyridazin-3-yl-4H-[1,2,4]triazolo[4,3-a][1,4]benzodiazepine] | 133% | 2.33
16 | Cc1nnc2n1-c1ccc(C(F)(F)F)c(Cl)c1C(c1c(F)cccc1F)=NC2 [Example 40, 7-chloro-6-(2,6-difluorophenyl)-1-methyl-8-(trifluoromethyl)-4H-[1,2,4]triazolo[4,3-a][1,4]benzodiazepine] | 75% | 1.75
17 | Cc1nnc2n1-c1ccc(I)c(Cl)c1C(c1c(F)cccc1F)=NC2 [Example 41, 7-chloro-6-(2,6-difluorophenyl)-8-iodo-1-methyl-4H-[1,2,4]triazolo[4,3-a][1,4]benzodiazepine] | 70% | 1.70
18 | Fc1cccc(F)c1C1=NCc2nnc(-c3cccnn3)n2-c2ccc(Br)c(Br)c21 [Example 42, 7,8-dibromo-6-(2,6-difluorophenyl)-1-pyridazin-3-yl-4H-[1,2,4]triazolo[4,3-a][1,4]benzodiazepine] | 97% | 1.97
19 | Fc1cccc(F)c1C1=NCc2nnc(-c3ccncn3)n2-c2ccc(Br)c(Br)c21 [Example 43, 7,8-dibromo-6-(2,6-difluorophenyl)-1-pyrimidin-4-yl-4H-[1,2,4]triazolo[4,3-a][1,4]benzodiazepine] | 23% | 1.23

— patent US20230141603A1, “BENZODIAZEPINE DERIVATIVES AS GABA A GAMMA1 PAM” (Hoffmann-La Roche Inc., priority 2021, published 2023)
